Test results from patent publication US20250296971A1, “GASTRIC INHIBITORY PEPTIDE RECEPTOR LIGANDS” (priority 2021, published 2025).
*1 amine or outer side, *2 acyl side, *3 side chain or, on linkers, in order; H or OH if unused. Where a SMILES comes first, the peptide text is derived from it. Bridges are numbered along the chain shown (N, C = ends). Where no end group is shown, it is not given here. Side-chain parts run from the residue outwards. [ ]: non-standard residue; d: D form. The star is where a group is joined. X12 = O=C(O)CN1CCN(CC(=O)O)CCN(CC(=O)N[C@H](CCC(=O)NC[C@H](O)[C@@H](O)[C@H](O)[C@H](O)CO)C(=O)*)CCN(CC(=O)O)CC1; X2 = O=C(O)CN1CCN(CC(=O)O)CCN(CC(=O)N[C@@H](CCC(=O)NC[C@H](O)[C@@H](O)[C@H](O)[C@H](O)CO)C(=O)*)CCN(CC(=O)O)CC1; Ttds = 1,13-diamino-4,7,10-trioxatridecan-succinamic acid, NCCCOCCOCCOCCCNC(=O)CCC(=O)*; NH(1-deoxy-D-glucityl) = OC[C@@H](O)[C@@H](O)[C@H](O)[C@@H](O)CN*; Pro(trans-4-NH2) = O=C([C@@H]1C[C@@H](N[*:3])CN1[*:1])[*:2]; DOTA = O=C(O)CN1CCN(CC(=O)O)CCN(CC(=O)*)CCN(CC(=O)O)CC1; Trp(5-Cl) = N[C@@H](Cc1c[nH]c2ccc(Cl)cc12)C(=O)O; Pyridine(2,6-diCH2) = c1cc(C[*:1])nc(C[*:2])c1; Pro(4R-NH2) = N[C@H]1CN[C@H](C(=O)O)C1; AETO = 2-aminoethane-1-thiol oxidized; mXylylene = c1cc(C[*:1])cc(C[*:2])c1; Glutaryl = O=C(CCCC(=O)[*:2])[*:1]; Hyp = O=C(O)[C@@H]1C[C@@H](O)CN1; X1 = O=C(CN1CCC(N[*:1])CC1)[*:2]; Cysteamide = C(CS[*:3])N[*:1]; hLeu = CC(C)CC[C@H](N)C(=O)O; Api = NC1(C(=O)O)CCNCC1; Thp = NC1(C(=O)O)CCOCC1; Dap = NC[C@H](N)C(=O)O; Aib = CC(C)(N)C(=O)O

T1: GIPR (CHO-K1-hGIPR cells) (Homo sapiens, UniProt P48546)
T1 construct: host or cells: CHO-K1
T1 sequence (P48546 22-466): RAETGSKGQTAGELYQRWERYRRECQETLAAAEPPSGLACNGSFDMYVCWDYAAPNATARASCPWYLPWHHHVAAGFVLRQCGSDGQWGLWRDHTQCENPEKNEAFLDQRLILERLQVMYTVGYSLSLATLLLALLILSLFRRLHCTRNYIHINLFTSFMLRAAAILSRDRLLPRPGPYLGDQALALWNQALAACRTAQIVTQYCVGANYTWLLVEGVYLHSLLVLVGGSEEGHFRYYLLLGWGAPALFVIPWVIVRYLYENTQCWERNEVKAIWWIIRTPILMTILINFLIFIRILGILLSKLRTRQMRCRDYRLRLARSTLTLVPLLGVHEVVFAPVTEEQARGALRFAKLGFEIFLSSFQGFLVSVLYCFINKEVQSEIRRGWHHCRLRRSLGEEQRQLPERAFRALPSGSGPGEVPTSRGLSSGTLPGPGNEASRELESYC

T2: human GIP receptor (bioGIPR) (Homo sapiens, UniProt P48546)
T2 construct: Biotinylate extracellular of the human GIP receptor (bioGIPR, Proteros biostructures GmbH, lot #02/2b); purchased Proteros biostructures GmbH lot #02/2b
T2 sequence (P48546 22-138 limits assumed): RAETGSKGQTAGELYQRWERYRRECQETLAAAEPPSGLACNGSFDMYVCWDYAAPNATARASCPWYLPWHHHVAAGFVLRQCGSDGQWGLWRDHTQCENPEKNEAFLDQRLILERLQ

B1: DOTA-Ttds-Asp-Trp-5Clw-Pro-Glu-leu-[Cys(3MeBn)-Aib-Hle-Ile-AET] (peptide)
peptide: {DOTA-Ttds}-DW[Trp(5-Cl)]PE[dL]C[Aib][hLeu]I[Cysteamide]
modifications: linker (positions not given here) via mXylylene; not fully specified (bridges); printed as DOTA-Ttds-Asp-Trp-5Clw-Pro-Glu-leu-[Cys(3MeBn)-Aib-Hle-Ile-AET]

Experiments:
[1] = target: T1, GIPR (CHO-K1-hGIPR cells); assay: FACS binding assay; settings: competition with 20 nM GIP-057, 4° C., 1 hour, read-out: pIC50 Category (converted)
In short: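 Steps: detach CHO-K1-hGIPR cells (Accutase); wash in PBS/1% FCS; adjust to 500.000 cells per mL; wash ice-cold; incubate APC-streptavidin 1 μg/mL, 30 min on ice; wash twice; acquire on flow cytometer; fit MFI-concentration data with a four-parameter logistic model.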

[2] = target: T2, human GIP receptor (bioGIPR); assay: Surface plasmon resonance (SPR) based binding assay; settings: Single Cycle Kinetic mode, 25° C.; for t1/2 Category: SPR dissociation half-life; for Kd: SPR, 1:1 Langmuir binding model, read-out: pKD Category (converted)
Experimental: Surface plasmon resonance (SPR) studies were performed using a Biacore™ T200 SPR system. Briefly, polarized light is directed towards a gold-labeled sensor surface, and minimum intensity reflected light is detected. The angle of reflected light changes as molecules bind and dissociate.
Biotinylate extracellular of the human GIP receptor (bioGIPR, Proteros biostructures GmbH, lot #02/2b) was captured on a biotin capture chip (Biotin CAPture Kit, Series S, GE Healthcare, Cat #28-9202-34). bioGIPR was diluted in Running Buffer (HBST from Xantec Analytics; […], 0.05% Tween20, 0.1% DMSO) to a final concentration 100 nM and than flushed over the Fc-capture chip to immobilized ˜3500 RUs.
Stock solutions of test compounds were prepared by dissolving each compound in DMSO. DMSO stock solution were diluted 1:1000 in Running Buffer without DMSO. Further sequential dilutions were made with Running Buffer containing 0.1% DMSO. SPR binding analyses were performed in Single Cycle Kinetic (SCK) mode at 25° C. Flow cell without immobilized bioGIPR served as reference flowcell. After each SCK run, bioGIRP and the Biotin Capture Reagent was removed with Regeneration Solution (6 M Guanidium, 0.75 M NaOH).
In between every three SCK measurements, a blank run with Running Buffer instead of test compound was included to correct for baseline drifts (double blanking method).
For each test compound, SPR raw data in the form of resonance units (RU) were plotted as sensorgrams using the Biacore™ T200 control software. The signal from the blank sensorgram was subtracted from that of the test compound sensorgram (blank corrected). The blank corrected sensorgram was corrected for baseline drift by subtracting the sensorgram of a SCK run without the test compound (running buffer only). The association rate (kon), dissociation rate (koff), dissociation constant (KD), and t1/2 were calculated from blank corrected SPR data using the 1:1 Langmuir binding model from the Biacore™ T200 evaluation software. Raw data and fit results were imported as text files in IDBS. The pKD value (negative decadic logarithm of dissociation constant) was calculated in the IDBS excel template.

[3] = target: human Gastric Inhibitory Peptide Receptor (human) (UniProt P48546); assay: FACS competition with GIP-057 on CHO-K1-hGIPR cells; pIC50 category A: >8.0

Row | Molecule | IC50 [1] | t1/2 Category [2] | Kd [2] | pIC50 [3]
1 | CC[C@H](C)[C@@H]1NC(=O)[C@H](CC(C)C)NC(=O)C2(CCOCC2)NC(=O)[C@@H](NC(=O)[C@@H](CC(C)C)NC(=O)[C@H](CCC(=O)O)NC(=O)[C@@H]2C[C@@H](O)CN2C(=O)[C@H](Cc2c[nH]c3ccc(Cl)cc23)NC(=O)[C@H](Cc2c[nH]c3ccccc23)NC(=O)[C@H](CC(=O)O)NC(=O)CCCC(=O)NC[C@H](O)[C@@H](O)[C@H](O)[C@H](O)CO)CSCc2cccc(n2)CSC[C@@H](C(=O)NC2CCN(CC(=O)N[C@H](CCC(=O)NC[C@H](O)[C@@H](O)[C@H](O)[C@H](O)CO)C(=O)N[C@@H](CCCCNC(=O)CN3CCN(CC(=O)O)CCN(CC(=O)O)CCN(CC(=O)O)CC3)C(N)=O)CC2)NC1=O [GIP-004, AGLU-Glutar-Asp-Trp-5Clw-Hyp-Glu-leu-[Cys(2Lut)-Thp-Leu-Ile-Cys]-APAc-glu(AGLU)-Lys(DOTA)-NH2] ({NH(1-deoxy-D-glucityl)-Glutaryl}-DW[Trp(5-Cl)][Hyp]E[dL]C[Thp]LIC[X1][dE](NH(1-deoxy-D-glucityl))K(DOTA)-NH2; linker 7-11 via Pyridine(2,6-diCH2)) | < 10 nM | A (t1/2 values>15 min) | < 1 nM | 
2 | CC[C@H](C)[C@@H]1NC(=O)[C@H](CC(C)C)NC(=O)C2(CCN(C(=O)CN3CCN(CC(=O)O)CCN(CC(=O)O)CCN(CC(=O)O)CC3)CC2)NC(=O)[C@@H](NC(=O)[C@@H](CC(C)C)NC(=O)[C@H](CCC(=O)O)NC(=O)[C@@H]2C[C@@H](NC(=O)CCCC(=O)NC[C@H](O)[C@@H](O)[C@H](O)[C@H](O)CO)CN2C(=O)[C@H](Cc2c[nH]c3ccc(Cl)cc23)NC(=O)[C@H](Cc2c[nH]c3ccccc23)NC(=O)[C@H](CC(=O)O)NC(=O)CN2CCC(NC(=O)CCCC(=O)NC[C@H](O)[C@@H](O)[C@H](O)[C@H](O)CO)CC2)CSCc2cccc(n2)CSC[C@@H](C(=O)NC2CCN(CC(=O)N[C@H](CCC(=O)NC[C@H](O)[C@@H](O)[C@H](O)[C@H](O)CO)C(N)=O)CC2)NC1=O [GIP-006, AGLU-Glutar-APAc-Asp-Trp-5Clw-Tap(AGLU-Glutar)-Glu-leu-[Cys(2Lut)-Apc(DOTA)-Leu-Ile-Cys]-APAc-glu(AGLU)-NH2] ({NH(1-deoxy-D-glucityl)-Glutaryl}-[X1]DW[Trp(5-Cl)][Pro(trans-4-NH2)]([Glutaryl-NH(1-deoxy-D-glucityl)])E[dL]C[Api](DOTA)LIC[X1][dE](NH(1-deoxy-D-glucityl))-NH2; linker 8-12 via Pyridine(2,6-diCH2)) | < 10 nM | A (t1/2 values>15 min) | < 1 nM | 
3 | CC[C@H](C)[C@@H]1NC(=O)[C@H](CC(C)C)NC(=O)C2(CCN(C(=O)[C@H](CCC(=O)NC[C@H](O)[C@@H](O)[C@H](O)[C@H](O)CO)NC(=O)CN3CCN(CC(=O)O)CCN(CC(=O)O)CCN(CC(=O)O)CC3)CC2)NC(=O)[C@@H](NC(=O)[C@@H](CC(C)C)NC(=O)[C@H](CCC(=O)O)NC(=O)[C@@H]2C[C@@H](NC(=O)CCCC(=O)NC[C@H](O)[C@@H](O)[C@H](O)[C@H](O)CO)CN2C(=O)[C@H](Cc2c[nH]c3ccc(Cl)cc23)NC(=O)[C@H](Cc2c[nH]c3ccccc23)NC(=O)[C@H](CC(=O)O)NC(=O)CN2CCC(NC(=O)CCCC(=O)NC[C@H](O)[C@@H](O)[C@H](O)[C@H](O)CO)CC2)CSCc2cccc(n2)CSC[C@@H](C(=O)NC2CCN(CC(=O)N[C@H](CCC(=O)NC[C@H](O)[C@@H](O)[C@H](O)[C@H](O)CO)C(N)=O)CC2)NC1=O [GIP-007, AGLU-Glutar-APAc-Asp-Trp-5Clw-Tap(AGLU-Glutar)-Glu-leu-[Cys(2Lut)-Apc(DOTA-glu(AGLU))-Leu-Ile-Cys]-APAc-glu(AGLU)-NH2] ({NH(1-deoxy-D-glucityl)-Glutaryl}-[X1]DW[Trp(5-Cl)][Pro(trans-4-NH2)]([Glutaryl-NH(1-deoxy-D-glucityl)])E[dL]C[Api](X2)LIC[X1][dE](NH(1-deoxy-D-glucityl))-NH2; linker 8-12 via Pyridine(2,6-diCH2)) | 10 to 79.4 nM | A (t1/2 values>15 min) | < 1 nM | 
4 | CC[C@H](C)[C@@H]1NC(=O)[C@H](CC(C)C)NC(=O)C2(CCN(C(=O)[C@@H](CCC(=O)NC[C@H](O)[C@@H](O)[C@H](O)[C@H](O)CO)NC(=O)CN3CCN(CC(=O)O)CCN(CC(=O)O)CCN(CC(=O)O)CC3)CC2)NC(=O)[C@@H](NC(=O)[C@@H](CC(C)C)NC(=O)[C@H](CCC(=O)O)NC(=O)[C@@H]2C[C@@H](N)CN2C(=O)[C@H](Cc2c[nH]c3ccc(Cl)cc23)NC(=O)[C@H](Cc2c[nH]c3ccccc23)NC(=O)[C@H](CC(=O)O)NC(=O)CN2CCC(NC(=O)CCCC(=O)NC[C@H](O)[C@@H](O)[C@H](O)[C@H](O)CO)CC2)CSCc2cccc(n2)CSC[C@@H](C(=O)NC2CCN(CC(=O)N[C@H](CCC(=O)NC[C@H](O)[C@@H](O)[C@H](O)[C@H](O)CO)C(N)=O)CC2)NC1=O [GIP-008, AGLU-Glutar-APAc-Asp-Trp-5Clw-Tap-Glu-leu-[Cys(2Lut)-Apc(DOTA-glu(AGLU))-Leu-Ile-Cys]-APAc-glu(AGLU)-NH2] ({NH(1-deoxy-D-glucityl)-Glutaryl}-[X1]DW[Trp(5-Cl)][Pro(4R-NH2)]E[dL]C[Api](X12)LIC[X1][dE](NH(1-deoxy-D-glucityl))-NH2; linker 8-12 via Pyridine(2,6-diCH2)) | < 10 nM | A (t1/2 values>15 min) | < 1 nM | 
5 | CC[C@H](C)[C@@H]1NC(=O)[C@H](CC(C)C)NC(=O)C2(CCN(C(=O)CN3CCN(CC(=O)O)CCN(CC(=O)O)CCN(CC(=O)O)CC3)CC2)NC(=O)[C@@H](NC(=O)[C@@H](CC(C)C)NC(=O)[C@H](CCC(=O)O)NC(=O)[C@@H]2C[C@@H](O)CN2C(=O)[C@H](Cc2c[nH]c3ccc(Cl)cc23)NC(=O)[C@H](Cc2c[nH]c3ccccc23)NC(=O)[C@H](CC(=O)O)NC(=O)CN2CCC(NC(=O)CCCC(=O)NC[C@H](O)[C@@H](O)[C@H](O)[C@H](O)CO)CC2)CSCc2cccc(n2)CSC[C@@H](C(=O)NC2CCN(CC(=O)N[C@H](CCC(=O)NC[C@H](O)[C@@H](O)[C@H](O)[C@H](O)CO)C(N)=O)CC2)NC1=O [GIP-011, AGLU-Glutar-APAc-Asp-Trp-5Clw-Hyp-Glu-leu-[Cys(2Lut)-Apc(DOTA)-Leu-Ile-Cys]-APAc-glu(AGLU)-NH2] ({NH(1-deoxy-D-glucityl)-Glutaryl}-[X1]DW[Trp(5-Cl)][Hyp]E[dL]C[Api](DOTA)LIC[X1][dE](NH(1-deoxy-D-glucityl))-NH2; linker 8-12 via Pyridine(2,6-diCH2)) | < 10 nM | A (t1/2 values>15 min) | < 1 nM | 
6 | B1 |  |  |  | > 8 pic50
7 | {DOTA-Ttds}-DW[Trp(5-Cl)]PE[dL][Dap][Aib]LI[AETO] (linker (positions not given here) via mXylylene; not fully specified (bridges)) [DOTA-Ttds-Asp-Trp-5Clw-Pro-Glu-leu-[Dap(3MeBn)-Aib-Leu-Ile-AETO]] |  |  |  | > 8 pic50
